Measurements taken from ChEMBL document CHEMBL5365480, “Potent and selective carbonic anhydrase inhibition activities of pyrazolones bearing benzenesulfonamides” (Bioorg Med Chem Lett, 2023).

Assays:
Carbonic anhydrase 9 = Carbonic anhydrase 9 (Homo sapiens, UniProt Q16790); assay: Inhibition of human CA IX assessed as inhibition constant by stopped-flow CO2 hydrase assay method
Carbonic anhydrase 1 = Carbonic anhydrase 1 (Homo sapiens, UniProt P00915); assay: Inhibition of human CA I assessed as inhibition constant by stopped-flow CO2 hydrase assay method
Carbonic anhydrase 1, sequence (P00915 whole entry): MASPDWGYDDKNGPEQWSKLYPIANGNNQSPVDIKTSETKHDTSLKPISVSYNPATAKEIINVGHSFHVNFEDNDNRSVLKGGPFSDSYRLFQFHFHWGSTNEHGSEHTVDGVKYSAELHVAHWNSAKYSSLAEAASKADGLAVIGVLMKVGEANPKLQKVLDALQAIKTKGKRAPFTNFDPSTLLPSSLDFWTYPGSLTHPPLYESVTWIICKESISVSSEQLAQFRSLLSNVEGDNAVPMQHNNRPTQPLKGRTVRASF

Carbonic anhydrase 2 = Carbonic anhydrase 2 (Homo sapiens, UniProt P00918); assay: Inhibition of human CA II assessed as inhibition constant by stopped-flow CO2 hydrase assay method
Carbonic anhydrase 12 = Carbonic anhydrase 12 (Homo sapiens, UniProt O43570); assay: Inhibition of human CA XII assessed as inhibition constant by stopped-flow CO2 hydrase assay method
Carbonic anhydrase 12, sequence (O43570 whole entry): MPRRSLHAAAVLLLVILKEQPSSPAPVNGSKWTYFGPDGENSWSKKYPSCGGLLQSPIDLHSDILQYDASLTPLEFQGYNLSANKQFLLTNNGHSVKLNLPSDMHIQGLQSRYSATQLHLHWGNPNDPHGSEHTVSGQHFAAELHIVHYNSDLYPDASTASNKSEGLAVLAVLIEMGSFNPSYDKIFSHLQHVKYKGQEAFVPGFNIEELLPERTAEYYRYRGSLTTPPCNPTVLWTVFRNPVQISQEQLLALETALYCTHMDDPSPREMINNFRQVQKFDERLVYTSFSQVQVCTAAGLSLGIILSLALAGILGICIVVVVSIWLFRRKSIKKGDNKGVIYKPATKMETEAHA

Structure (SMILES)	Ki (Carbonic anhydrase 9) [nM]	Ki (Carbonic anhydrase 1) [nM]	Ki (Carbonic anhydrase 2) [nM]	Ki (Carbonic anhydrase 12) [nM]
CC1=NN(c2ccc(C#N)cc2)C(=O)/C1=N/Nc1cccc(S(N)(=O)=O)c1	60.7	495	0.5	3.9
CC1=NN(c2ccc(Cl)cc2Cl)C(=O)/C1=N/Nc1cccc(S(N)(=O)=O)c1	158	53200	473	273
CC1=NN(c2ccccc2Cl)C(=O)/C1=N/Nc1cccc(S(N)(=O)=O)c1	70.7	9080	290	123
CC1=NNC(=O)/C1=N/Nc1ccc(S(N)(=O)=O)cc1	36.2	53.1	2.5	161
CC1=NN(c2ccccc2)C(=O)/C1=N/Nc1ccc(S(N)(=O)=O)cc1	8.7	712		48.8
CC1=NN(c2ccc(C#N)cc2)C(=O)/C1=N/Nc1ccc(S(N)(=O)=O)cc1	3.2	504	59	9.2
CC1=NN(c2ccc(C)cc2)C(=O)/C1=N/Nc1cccc(S(N)(=O)=O)c1	44.9	376	186	40.6
CC1=NN(c2ccccc2)C(=O)/C1=N/Nc1cccc(S(N)(=O)=O)c1	15	8310	6.6	53.5
CC1=NN(c2ccc(Cl)cc2)C(=O)/C1=N/Nc1cccc(S(N)(=O)=O)c1	40.2	7800	327	90.6
CC1=NN(c2ccc(Cl)cc2Cl)C(=O)/C1=N/Nc1ccc(S(N)(=O)=O)cc1	8.5	5270	72	6.7
CC1=NNC(=O)/C1=N/Nc1cccc(S(N)(=O)=O)c1	22.9	217	139	87.2
CC1=NN(c2ccc(C)cc2)C(=O)/C1=N/Nc1ccc(S(N)(=O)=O)cc1	25.1	337	6.1	66.1
CC1=NN(c2ccccc2Cl)C(=O)/C1=N/Nc1ccc(S(N)(=O)=O)cc1	31.2	7420	77.6	73.7
CC1=NN(c2ccc(Cl)cc2)C(=O)/C1=N/Nc1ccc(S(N)(=O)=O)cc1	1.1	8640	21.1	24.6
